How the values were obtained:
Settings in all cases: 72 h
KG-1 = assay: cell viability (% survival relative to DMSO control, bortezomib = 0%); higher = less cytotoxic
Outline: (§1)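 Fifteen myeloid leukaemia cell lines (10 AML, 5 CML) were seeded at a density titrated to the linear growth range into 384-well plates pre-printed with compounds at 1, 10, 100, 1000 or 10000 nM in duplicate. Plates were incubated for 72 h at 37 °C with 5% CO2. Viability was then read by CellTiter-Glo luminescence. Each value is percent survival averaged over the duplicates, with vehicle set to 100% and a 10 µM positive control to 0%.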

K-562 = assay: as above
Outline: as §1

SHI-1 = assay: as above
Outline: as §1

HEL = assay: as above
Outline: as §1

ML-2 = assay: as above
Outline: as §1

MOLM-13 = assay: as above
Outline: as §1

THP-1 = assay: as above
Outline: as §1

KU-812 = assay: as above
Outline: as §1

Mono-Mac-6 = assay: as above
Outline: as §1

BV-173 = assay: as above
Outline: as §1

HL-60 [1] = assay: as above
Outline: as §1

KCL-22 [2] = assay: as above
Outline: as §1

LAMA-84 = assay: as above
Outline: as §1

MV4-11 = assay: as above
Outline: as §1

NOMO-1 = assay: as above
Outline: as §1

KCL-22 [3] = tested on: KCL-22
Outline: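 Fifteen myeloid leukaemia lines were incubated for 72 h at 37 °C with 5% CO2 across five tenfold doses from 1 to 10,000 nM, in duplicate. ATP luminescence was normalised to vehicle and to a positive control at 10 µM and fitted with a four-parameter log-logistic model. The IC50 came from these dose–response fits.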

HL-60 [4] = assay: cell viability (% survival relative to DMSO control); higher = less cytotoxic
Outline: (§2)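 Area under the curve, where listed, was derived from four-parameter log-logistic fits with drc and PharmacoGx. These fits used CellTiter-Glo viability from HL-60 cells in RPMI 1640 with 10% FBS, normalised to DMSO wells and wells holding 10 μM proteasome inhibitor. The full library was rescreened on 384-well plates in duplicate at five tenfold concentrations, 1–10,000 nM, with DMSO or 100 nM of one of three metabolic inhibitors, for 72 h at 37 °C, 5% CO2.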

HL-60 [5] = assay: area under dose-response curve (viability, 1 nM-10 uM) (fraction (0-1)); higher = more sensitive
Outline: as §2

Cc1nnc(-c2ccc(N3CCC(Oc4ccccc4C(F)(F)F)CC3)nn2)s1 [MF-438]
Settings	area under dose-response curve, co-treatment: AZD3965 100 nM	area under dose-response curve, co-treatment: DMSO vehicle	area under dose-response curve, co-treatment: GSK2194069 100 nM	area under dose-response curve, co-treatment: pictilisib 100 nM	cell viability, 1 nM [%]	cell viability, 10 nM [%]	cell viability, 100 nM [%]	cell viability, 1000 nM [%]	cell viability, 10000 nM [%]
BV-173	–	–	–	–	96.1	108	89.4	137	99.4
HEL	–	–	–	–	102	91.9	106	122	106
HL-60 [1]	–	–	–	–	93.6	92.5	87	127	56.5
HL-60 [5]	< 0.0301	< 0.0301	< 0.0301	< 0.0301	–	–	–	–	–
K-562	–	–	–	–	97	103	32.4	38.2	38.1
KCL-22 [2]	–	–	–	–	103	99.6	69	61.3	49.5
KG-1	–	–	–	–	62.5	133	94.3	115	106
KU-812	–	–	–	–	93.9	103	83.9	113	97.5
LAMA-84	–	–	–	–	93.4	85.4	88	76.9	92.6
ML-2	–	–	–	–	96	114	98.6	117	88.3
MOLM-13	–	–	–	–	63.7	86.7	33.9	41.3	36.6
MV4-11	–	–	–	–	91	109	91.2	99.2	45.3
Mono-Mac-6	–	–	–	–	101	100	95.5	99	103
NOMO-1	–	–	–	–	97.9	99.2	92.8	108	103
SHI-1	–	–	–	–	98.9	98.2	102	113	80.9
THP-1	–	–	–	–	97.9	110	96.5	102	98.1

Settings	IC50 (cell viability) [nM]
KCL-22 [3]	2290

cell viability [%], HL-60 [4]
Settings	0.001 µM	0.01 µM	0.1 µM	1 µM	10 µM
co-treatment: AZD3965 100 nM	88.9	99.9	104	101	89.8
co-treatment: DMSO vehicle	101	101.6	102	100	94.9
co-treatment: GSK2194069 100 nM	92.9	104	93.3	101	86.5
co-treatment: pictilisib 100 nM	109	106	100	94.07	98.1

CN(C)C(=O)n1nnnc1Cc1ccc(-c2ccccc2)cc1
Settings	area under dose-response curve, co-treatment: AZD3965 100 nM	area under dose-response curve, co-treatment: DMSO vehicle	area under dose-response curve, co-treatment: GSK2194069 100 nM	area under dose-response curve, co-treatment: pictilisib 100 nM	cell viability, 1 nM [%]	cell viability, 10 nM [%]	cell viability, 100 nM [%]	cell viability, 1000 nM [%]	cell viability, 10000 nM [%]
BV-173	–	–	–	–	96.6	110	98.1	13.7	0.269
HEL	–	–	–	–	101	112	102	87.1	1.09
HL-60 [1]	–	–	–	–	114	136	106	108	2.17
HL-60 [5]	0.113	0.116	0.108	0.116	–	–	–	–	–
K-562	–	–	–	–	100	111	112	78.1	4.59
KCL-22 [2]	–	–	–	–	94.6	109	101	95	0.732
KG-1	–	–	–	–	93.7	108	104	60.6	8.52
KU-812	–	–	–	–	101	101	96.5	77.9	3.07
LAMA-84	–	–	–	–	83	109	103	85.5	3.4
ML-2	–	–	–	–	101	112	114	69.2	3.07
MOLM-13	–	–	–	–	99	122	115	104	0.746
MV4-11	–	–	–	–	98.3	114	89.2	76.4	0.0147
Mono-Mac-6	–	–	–	–	95.9	102	102	88.6	0.0787
NOMO-1	–	–	–	–	105	99.4	96.7	86.9	26.5
SHI-1	–	–	–	–	97.5	116	125	112	1.4
THP-1	–	–	–	–	103	112	102	67.6	35

Settings	IC50 (cell viability) [nM]
KCL-22 [3]	2920

cell viability [%], HL-60 [4]
Settings	0.001 µM	0.01 µM	0.1 µM	1 µM	10 µM
co-treatment: AZD3965 100 nM	91.3	99.6	103	105	6.18
co-treatment: DMSO vehicle	97.5	99.54	101	101.1	6.81
co-treatment: GSK2194069 100 nM	101	96.8	104	109	6.62
co-treatment: pictilisib 100 nM	96.2	93.4	100	104	5

CCCCCCCCCCCCCCOc1ccc(C(=O)O)o1 [TOFA]
Settings	area under dose-response curve, co-treatment: AZD3965 100 nM	area under dose-response curve, co-treatment: DMSO vehicle	area under dose-response curve, co-treatment: GSK2194069 100 nM	area under dose-response curve, co-treatment: pictilisib 100 nM	cell viability, 1 nM [%]	cell viability, 10 nM [%]	cell viability, 100 nM [%]	cell viability, 1000 nM [%]	cell viability, 10000 nM [%]
BV-173	–	–	–	–	110	104	101	90.1	103
HEL	–	–	–	–	108	91.8	103	103	83.8
HL-60 [1]	–	–	–	–	75.1	83.8	108	109	85.4
HL-60 [5]	< 0.0301	< 0.0301	< 0.0301	0.114	–	–	–	–	–
K-562	–	–	–	–	100	93.4	92	108	114
KCL-22 [2]	–	–	–	–	94.2	90.6	108	107	40.4
KG-1	–	–	–	–	95.8	103	116	97.5	93.2
KU-812	–	–	–	–	109	95	95.6	81.5	82.5
LAMA-84	–	–	–	–	106	105	102	103	90.1
ML-2	–	–	–	–	101	92.8	110	101	108
MOLM-13	–	–	–	–	102	91.7	98.8	82.7	87
MV4-11	–	–	–	–	87.6	87.9	104	98.4	96.2
Mono-Mac-6	–	–	–	–	113	94.5	99.8	94.2	105
NOMO-1	–	–	–	–	105	101	99.3	99	109
SHI-1	–	–	–	–	113	85.6	110	98.9	89.9
THP-1	–	–	–	–	98.2	101	97.9	86.4	88.8

Settings	IC50 (cell viability) [nM]
KCL-22 [3]	8330

cell viability [%], HL-60 [4]
Settings	0.001 µM	0.01 µM	0.1 µM	1 µM	10 µM
co-treatment: AZD3965 100 nM	96.4	101	104	97.5	100
co-treatment: DMSO vehicle	98.8	102	98.8	98.5	97.592
co-treatment: GSK2194069 100 nM	81.3	96.3	84.6	95.9	94.01
co-treatment: pictilisib 100 nM	80.5	100	94.5	107	2.06

From the supplement of paper PMC8671470
